From US20100056620A1, “ACTIVE COMPOUND COMBINATIONS WITH INSECTICIDAL AND ACARICIDAL PROPERTIES” (Bayer CropScience AG, priority 2006, published 2010) come the findings set out here.

What all share (format): in vivo
Test [1] has as its system red spider Panonychus ulmi (PANOUL). Briefly: Example A: apple tree field test against red spider, count of adult spider mites on 25 leaves. To be noted: etoxazole 0.05%, I-1-b 0.04%; for PANOUL (number of adult spider mites on 25 leaves): apple 'Braeburn'; for Prey/Predator ratio: PANOUL/AMBLAN. The protocol: (§1) In 4 replications, in each case five about 10-year-old apple trees (crown height about 2.5 m) of the cultivar “Braeburn” are treated against the red spider Panonychus ulmi (PANOUL). Here, the active compound (I-b-1) (240SC) and the commercial standard etoxazole (110 SC) are applied at the stated application rates in the presence of the predatory mite Amblyseius andersoni (AMBLAN) using a pressure-operated knapsack spray. The water application rate is 400 l/ha. Two applications are carried out at an interval of 42 days.
(§2) Evaluation is carried out 4 days prior to and 6, 29, 43 and 63 days after the 1st treatment by counting the number of adult spider mites and predatory mites on 25 leaves and establishing a prey/predator ratio as a measure for the supporting action of the beneficial species.

For test [2], the system named is predatory mite Amblyseius andersoni (AMBLAN). Briefly: Example A: apple tree field test, count of predatory mites on 25 leaves. The settings on record: apple 'Braeburn', etoxazole 0.05%, I-1-b 0.04%. The protocol:
as §1, §2

Test [3] has as its system fruit tree spider mite (Panonychus ulmi). The test can be described thus: Example B: Panonychus ulmi test on plum cuttings, with or without added predatory mites. To be noted: 20 ppm, active compound alone, spray. An excerpt:
The expected activity for a given combination of two active compounds can be calculated (cf. Colby, S. R.; “Calculating Synergistic and Antagonistic Responses of Herbicide Combinations”, Weeds 15, pages 20-22, 1967) as follows:
If • X is the kill rate, expressed in % of the untreated control, when employing active compound A at an application rate of in ppm or g/ha, • Y is the kill rate, expressed in % of the untreated control, when employing active compound B at an application rate of n ppm or g/ha, • E is the kill rate, expressed in % of the untreated control, when employing active compounds A and B at application rates of m and n ppm or g/ha, • then
If the actual insecticidal kill rate is higher than the calculated one, the kill rates of the combination are superadditive, i.e. a synergistic effect is present. In this case, the kill rate that is actually observed has to be higher than the value, calculated using the formula above, for the expected kill rate (E).
To produce a suitable preparation of active compound, 1 part by weight of active compound is mixed with the stated amounts of solvent and emulsifier, and the concentrate is diluted with emulsifier-containing water to the desired concentration. […]
After the desired period of time, the kill of the pest in % is determined. […] The determined kill ratios are entered into Colby's formula.

The mark [4] stands for this setting: 6 d after 1st treatment, AMBLAN present.
Setting [5] is: 29 d after 1st treatment, AMBLAN present.
Where [6] appears, read: 43 d after 1st treatment, two applications 42 days apart.
Where [7] appears, read: 63 d after 1st treatment, two applications 42 days apart.
Setting [8] is: −4 d (4 days prior to 1st treatment).
The mark [9] stands for this setting: −4 d (4 days prior to 1st treatment), AMBLAN present.

Consider `CCC(C)(C)C(=O)OC1=C(c2ccc(Cl)cc2Cl)C(=O)OC12CCCCC2` [I-b-1, spirodiclofen], for which the “PANOUL (number of adult spider mites on 25 leaves)” value is listed as 13 in test [1] (setting [4]); 111 in test [1] (setting [5]); 52 in test [1] (setting [6]); 0 in test [1] (setting [7]); 36 in test [1] (setting [9]). Further, the Prey/Predator ratio in test [1] (6 d after 1st treatment) is recorded as 4.3; in test [1] (29 d after 1st treatment), 1.9; in test [1] (43 d after 1st treatment), 0.5; in test [1] (63 d after 1st treatment), 0.00; in test [1] (setting [8]), 18. Moreover, the “AMBLAN (number of predatory mites on 25 leaves)” value amounted to 3 in test [2] (6 d after 1st treatment); 57 in test [2] (29 d after 1st treatment); 100 in test [2] (setting [6]); 62 in test [2] (setting [7]); 2 in test [2] (setting [8]). For the same molecule, the “Kill in % after 7 d” value in test [3] was 70%.
Turning to `CCOc1cc(C(C)(C)C)ccc1C1COC(c2c(F)cccc2F)=N1` (stereo not shown) [etoxazole, reference compound], the “PANOUL (number of adult spider mites on 25 leaves)” value in test [1] (setting [4]) stood at 10; in test [1] (setting [5]), 221; in test [1] (setting [6]) it was 203; in test [1] (setting [7]), 87; in test [1] (setting [9]) it was 25. For the same molecule, the Prey/Predator ratio in test [1] (6 d after 1st treatment) worked out at 2.0; in test [1] (29 d after 1st treatment), 12.3; in test [1] (43 d after 1st treatment) it was 3.9; in test [1] (63 d after 1st treatment), 1.01; in test [1] (setting [8]), 25. The “AMBLAN (number of predatory mites on 25 leaves)” value in test [2] (6 d after 1st treatment) worked out at 5; in test [2] (29 d after 1st treatment) it was 18; in test [2] (setting [6]) it was 52; in test [2] (setting [7]), 86; in test [2] (setting [8]), 1.
